Experimental data published in PubChem BioAssay (NCI).
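These data come from cells grown in 96-well plates and exposed to compound for 48 hours at five concentrations. At the TGI there is no net growth.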

Key:
Experiment in all cases: NCI anticancer screen, dose series, 48 h
[1] = tested on: UACC-257 melanoma
[2] = tested on: OVCAR-4 ovarian
[3] = tested on: HCT-15 colon
[4] = tested on: BT-549 breast
[5] = tested on: SNB-19 CNS
[6] = tested on: RPMI-8226 leukemia
[7] = tested on: IGROV1 ovarian
[8] = tested on: SW-620 colon
[9] = tested on: MDA-MB-435
[10] = tested on: SNB-75 CNS

| Structure (SMILES) | TGI [1] [µM] | TGI [2] [µM] | TGI [3] [µM] | TGI [4] [µM] | TGI [5] [µM] | TGI [6] [µM] | TGI [7] [µM] | TGI [8] [µM] | TGI [9] [µM] | TGI [10] [µM] |
| --- | --- | --- | --- | --- | --- | --- | --- | --- | --- | --- |
| CNc1ncnc(Sc2nc(N)nc3nc[nH]c23)c1[N+](=O)[O-] | 13 | 18.7 | 14 | 20.1 | > 81.2 | 1.79 | 22.1 | 20.6 | 12 | 2.83 |
| O=C(c1ccccc1)c1ccc(C(c2c(O)c3ccccc3oc2=O)c2c(O)c3ccccc3oc2=O)cc1 | 49.5 | 82.9 | > 95.3 | 48.9 | 55.8 | 60.9 | > 60.9 | > 100 | > 74.2 | 62.4 |
| O=c1c(O)c(-c2ccc(O)cc2O)oc2cc(O)cc(O)c12 | > 100 | > 100 | > 100 |  | > 100 |  | > 100 | > 100 | > 100 | > 100 |
| NC(=S)/N=C/c1c(O)c2ccccc2oc1=O | > 100 | > 100 | > 100 |  | > 100 | > 100 | > 100 | > 100 |  | 87 |
| c1ccc(COc2ccc(CC3SCCCS3)cc2)cc1 | > 100 | > 100 | > 100 |  | > 100 | > 100 | > 100 | > 100 | > 100 |  |
| O=C(NN=C1CCN(Cc2ccccc2)CC1)C(O)(c1ccccc1)c1ccccc1 | > 100 | > 100 | > 100 |  | > 100 | > 100 | > 100 | > 100 | > 100 | > 100 |
| CCCCCC(CN1CCOCC1)C(=O)/C=C/c1ccccc1 (stereo unspecified) | 7.83 | 8.19 | 4.92 |  | 13.2 | 9.03 |  | 3.33 |  | 20 |
| O=C1C=CC(=O)c2c1ccc1c3ccccc3n(-c3ccccn3)c21 | 37.3 | 29.8 | 35.3 |  |  | > 100 |  |  |  | > 100 |
| CCOC(=O)C1(C(=O)OCC)C[C@]23OCCC(=O)[C@H]2[C@H]2C(=O)OC(C)(C)O[C@]23C1 | > 100 | > 100 | > 100 |  | > 100 | > 100 | > 100 | > 100 | > 100 | > 100 |
| O=C(Cn1c(=O)ccn(C2OC(CO)C(O)C2F)c1=O)c1ccc(F)cc1 (stereo unspecified) | > 100 |  | > 100 |  | > 100 | > 100 | > 100 | > 100 | > 100 | > 100 |
| c1ccc2c(c1)ccc1nc(-c3ccc4c(c3)OCO4)c3c(c12)CCCC3 | > 100 | 64.8 | > 100 | > 100 | > 100 | > 100 |  | > 100 | 87.7 | > 100 |
| CN(C)c1ccc(-c2cc(=O)c3ccccc3[nH]2)cc1 | > 100 |  | > 100 |  | > 100 | > 100 | > 100 | > 100 |  |  |
| CCOC(=O)C1C(=O)CC(O)(OCC)C(C(=O)OCC)C1c1ccc(OC)cc1 (stereo unspecified) | > 100 | > 100 | > 100 | > 100 | > 100 |  | > 100 | > 100 | > 100 | > 100 |
| CC(C(=O)N1C(=O)N(C(=O)C(C)C(O)c2ccccc2)C(c2ccccc2)C1c1ccccc1)C(O)c1ccccc1 (stereo unspecified) |  | > 100 | > 100 | 38.8 | > 100 | 13.6 | > 100 | > 100 | 61.2 | 54.8 |
| NC(N)=NCCCC(N=c1c2ccccc2n(O)c2ccccc12)C(=O)O (stereo unspecified) |  | > 100 | > 100 |  | > 100 | 75.7 | > 100 | > 100 |  | 87.6 |
| CCN(CC)CCn1c(C(C)(C)C)nc2ccccc21 | > 100 | > 100 | > 100 | > 100 | > 100 | > 100 | > 100 | > 100 |  | > 100 |
| C=C[C@@H]1OC(=O)O[C@H]1CO | > 100 | > 100 | > 100 |  | > 100 | > 100 | > 100 | > 100 | > 100 | > 100 |
| S=c1[nH]nc(COc2ccc3c(c2)CCCC3)n1/N=C/c1ccc(Cl)cc1 | 48.1 | 32.8 | 41 | 31.3 | 40 | 36.1 | 30.6 | 32.7 | 39.4 |  |
| C=CC1(C)CCC(C(C)C(=O)C(C=C(C)C)OC(C)=O)C12C(=O)Oc1ccccc1C2=O (stereo unspecified) | > 100 | > 100 | > 100 |  | > 100 | 68.2 | > 100 | > 100 |  | > 100 |
| CCOC(=O)CN1CCNCCN(CC(=O)OCC)CCNCC1 | > 100 | > 100 | > 100 | > 100 | > 100 | > 100 | > 100 |  | > 100 | > 100 |
| CC(=O)OCC1OC(On2ccccc2=S)C(OC(C)=O)C(OC(C)=O)C1OC(C)=O (stereo unspecified) | > 100 | > 100 | > 100 | > 100 | > 100 |  | > 100 | > 100 | > 100 | > 100 |
| Cc1ccc(C)c(NC(=O)C(=O)C2C(=O)C3=C(CC2(C)C)Nc2ccccc2S3)c1 (stereo unspecified) | > 100 | > 100 | > 100 | > 100 | > 100 |  | > 100 | > 100 | > 100 | > 100 |
| COc1c(CC=C(C)C)c(O)c(C(CC(C)C)c2c(O)c(C(C)=O)c(O)c3c2OC(C(C)(C)O)C3)c(O)c1C(C)=O (stereo unspecified) | 9.32 | > 12.5 | > 12.5 | 10.6 | > 12.5 |  | > 12.5 | > 12.5 | > 12.5 |  |
| NCc1ccc(-c2ccc(-c3ccc(-c4ccc(CN)s4)s3)s2)s1 | > 100 | > 100 | > 100 |  | > 100 | > 100 | > 100 | > 100 | > 100 | > 100 |
